In ChEMBL document CHEMBL1121386, “Synthesis and analgesic activity of some 14 beta-substituted analogues of morphine” (1980):

Organism: Cavia porcellus
Assay: Tested for analgesic activity in the guinea pig ileum preparation relative to normorphine (1)
Type: functional

CN1CCC23c4c5ccc(O)c4O[C@H]2C(=O)C=C[C@@]3(Cl)C1C5 (stereo partly specified)
Relative activity: 0.5

CN1CCC23c4c5ccc(O)c4O[C@H]2C(=O)C=C[C@@]3([N+](=O)[O-])C1C5 (stereo partly specified)
Relative activity: 0.006

CN1CCC23c4c5ccc(O)c4O[C@H]2C(=O)C=C[C@@]3(Br)C1C5 (stereo partly specified)
Relative activity: 0.4

CN1CCC23c4c5ccc(O)c4O[C@H]2[C@@H](O)C=C[C@@]3(O)C1C5 (stereo partly specified)
Relative activity: 0.8

CC(=O)N[C@@]12C=C[C@H](OC(C)=O)[C@@H]3Oc4c(O)ccc5c4C31CCN(C)C2C5 (stereo partly specified)
Relative activity: 0.6

CN1CCC23c4c5ccc(O)c4O[C@H]2[C@@H](O)C=C[C@@]3(S)C1C5 (stereo partly specified)
Relative activity: 0.4
